One block for each compound: values may come before it.
How the values were obtained:
LDHA enzyme = assay: LDHA enzymatic activity assay: rate of NADH consumption after pyruvate addition, spectrophotometry at 340 nm, in Med1-MB cell supernatant; format: biochemical, mouse; parameters: key to LDH Inhibition (relative inhibitory activity): *** strong; ** middle; * weak; conditions: dose of 100 μM
Description: To evaluate whether the observed anti-proliferative effect of IPI/01.LF and derivatives was a specific consequence of the inhibitory activity on the LDHA enzyme, the inventor performed enzymatic activity assays measuring the rate of NADH consumption following the addition of pyruvate by spectrophotometry at […], as previously described [Miskimins W K, Ahn H J, Kim J Y, Ryu S, Jung Y S, Choi J Y. Synergistic anti-cancer effect of phenformin and oxamate. PLoS One. 2014; 9(1):e85576.].
1×10^5 Med1-MB cells were harvested, suspended in 0.1M KH2PO4 (pH 7.2), 2 mM EDTA and 1 mM dithiothreitol (DTT), sonicated in 300 μL assay buffer (50 mmol/L potassium phosphate, pH 7.4), and centrifuged at 10,000 g for 10 minutes at 4° C. The supernatant was added to 50 mM potassium phosphate (pH 7.4), 2 mM pyruvate, and 20 µM NADH. Absorbance was measured over 10 minutes at 340 nm using a spectrophotometer.

Med1-MB cells = assay: Med1-MB tumor cell proliferation, Trypan Blue exclusion count; format: cell-based, mouse; parameters: key to Growth Inhibition (relative inhibitory activity): *** strong; ** middle; * weak; conditions: for Growth Inhibition (relative inhibitory activity): 72 h treatment
Description: Med1-MB cells (a mouse medulloblastoma cell line kindly provided by Dr Yoon-Jae Cho, Stanford, CA USA and disclosed in Hayden Gephart et al. Journal of Neuro-Oncology (2013) volume 115, pages 161-168) were maintained in DMEM supplemented with 10% FBS and 100 units of penicillin/streptomycin.
Med1-MB cells were cultured in Dulbecco's modified Eagle medium (DMEM) supplemented with 10% FBS, 1 mM penicillin-streptomycin and 1 mM glutamine in a humidified incubator at 37° C. and 5% CO2. […] After 72 hours, cells were trypsinized and counted by trypan blue exclusion method.
To evaluate the effect on tumor growth of compound IPI/01.LF, and derivatives, 1×10^4 Med1-MB cells were seeded in 12-well plate and incubated overnight at 37° C. in a humidified incubator. After 24 h, cells were treated with increasing concentrations of compounds for 72 h. At the end of the experiment, cell proliferation was assayed by Trypan Blue exclusion method. IC50 values were determined by generating a dose-response curves by non-linear regression. Data are expressed as the mean±SD of three independent experiments, each performed in triplicate.

Panc1 tumor xenograft = assay: Panc1 luciferase xenograft in immunodeficient nude (nu/nu) mice: caliper tumor volume, luminescence, body weight; format: in vivo, mouse; conditions: for tumor growth in treated mice: 20 mg/Kg in corn oil, intraperitoneally every two days, vs vehicle
Description: To evaluate the in vivo therapeutic effects of compound IPI/01.LF studies on immunodeficient nude (nu/nu) mouse models xenografted with the human pancreatic tumor cells Panc1 were performed.
Panc1 cells were stably transduced with 5 MOI of a lentivirus expressing the luciferase gene (pLenti CMV Puro LUC (w168-1)). The lentiviral vector was purchased from Addgene, Watertown, MA 02472 USA (plasmid #17477); Campeau E, et al A versatile viral system for expression and depletion of proteins in mammalian cells PLoS One (2009) 4(8):e6529.
Stably transduced Panc1 cells were subcutaneously implanted in immunocompromised Balb/C nude athymic mice. When the tumors reached the volume of 200 mm^3, mice were treated with either 20 mg/kg of compound IPI/01.LF dissolved in corn oil or with corn oil (vehicle) alone and injected intraperitoneally every two days. Tumor growth was monitored with a caliper every other day. Data are expressed as the mean±SD of three independent experiments, each performed in triplicate.
Since the grafted Panc1 tumor cells express the ectopic luciferase reporter gene, tumor luminescence was used to monitor the tumor growth. Luminescence was measured using IVIS Lumina III In Vivo Imaging System (PerkinElmer).
Mice were intraperitoneally injected with luciferin (RediJect D-Luciferin Bioluminescent Substrate, PerkinElmer) and analyzed by photon emission (bioluminescence).
L of luciferin (15 mg/mL stock)/gram of mouse body weight were injected in the lower left abdominal quadrant of xenografted Balb/C mice with a 25 gauge needle. After 10 minutes, animals were anesthetized with a mixture of oxygen gas and vaporized isoflurane. Once the animals were fully anesthetized, they were positioned within the animal imaging cassette for image acquisition. Data were analyzed utilizing the LivingImage software. Image acquisition was performed at the beginning (T=0) and at the end (T=17) of the experiment and body weights (g) of mice at time of sacrifice were determined.

Panc1 cells = assay: Panc1 pancreatic tumor cell proliferation, Trypan Blue exclusion; format: cell-based, human
Description: The inventor tested compound #1-IPI/01.LF on the proliferation of human pancreatic ductal adenocarcinoma (PDAC) Panc1 cells (American Tissue Cell Culture (ATCC, Manassas, VA, USA); product code: ATCC® CRL-1469™) a human tumor cell line showing a high glycolytic rate (Liu L, Gong L, Zhang Y, Li N. Glycolysis in Panc-1 human pancreatic cancer cells is inhibited by everolimus Experimental and therapeutic medicine (2013) 5: 338-342).
PANC-1 cells were maintained in DMEM supplemented with 10% FBS and 100 units of penicillin/streptomycin. After 72 h, cell proliferation was assayed by Trypan Blue exclusion method. IC50 value was determined by generating a dose-response curves by non-linear regression. Data are expressed as the mean±SD of three independent experiments, each performed in triplicate.

Compound: O=C(Nc1cccc(Cl)c1)c1c[nH]c(=O)n(Cc2ccccc2)c1=O [#2, 2,4-Dioxo-3-benzyl-N-(3-chlorophenyl)-1,2,3,4-tetrahydropyrimidine-5-carboxamide]
LDH Inhibition (relative inhibitory activity) (LDHA enzyme): * | Growth Inhibition (relative inhibitory activity) (Med1-MB cells): *

Compound: O=C(Nc1ccccc1Cl)c1c[nH]c(=O)n(Cc2ccccc2)c1=O [#4, 2,4-Dioxo-3-benzyl-N-(2-chlorophenyl)-1,2,3,4-tetrahydropyrimidine-5-carboxamide]
LDH Inhibition (relative inhibitory activity) (LDHA enzyme): *** | Growth Inhibition (relative inhibitory activity) (Med1-MB cells): ***

IC50 (Panc1 cells; Homo sapiens, PANC-1, Panc1 cells, 72 h, non-linear regression): ~23 µM | IC50 range, cell proliferation (Panc1 cells; Panc1 cells): within the micromolar range | IC50 (Med1-MB cells; Mus musculus, 72 h, non-linear regression): ~29 µM
Compound: O=C(Nc1ccccc1)c1c[nH]c(=O)n(Cc2ccccc2F)c1=O [#1, 2,4-dioxo-N-phenyl-3-(2-fluorobenzyl)-1,2,3,4-tetrahydropyrimidine-5-carboxamide]
tumor growth in treated mice (Panc1 tumor xenograft): did not grow at all | tumor growth in treated mice (Panc1 tumor xenograft; listed as IPI/01.LF): significantly lower | weight of mice (Panc1 tumor xenograft; 20 mg/Kg, T=0 to T=17): unchanged | tumor luminescent light signal over time (Panc1 tumor xenograft; 20 mg/Kg, T=0 vs T=17 days, IVIS Lumina III): significant regression over time | tumor mass smaller in treated mice compared to controls at end of experiment (Panc1 tumor xenograft; 20 mg/Kg, end of experiment): 2.5 fold | mean volume of tumors at end of treatment compared to controls (Panc1 tumor xenograft; 20 mg/kg, end of treatment): significantly reduced | concentration times lower than oxamate for comparable ability to reduce tumor growth (Panc1 cells; in vitro, vs oxamate): > 700 times | LDH Inhibition (relative inhibitory activity) (LDHA enzyme): *** | inhibitory effect on LDHA enzymatic activity (LDHA enzyme): marked inhibitory effect | Growth Inhibition (relative inhibitory activity) (Med1-MB cells): *** | values times lower than those obtained with oxamate (Med1-MB cells; vs oxamate): approximately 700 times

Compound: O=C(Nc1ccccc1F)c1c[nH]c(=O)n(Cc2ccc(F)cc2)c1=O [#3, 2,4-Dioxo-3-(4-fluorobenzyl)-N-(2-fluorophenyl)-1,2,3,4-tetrahydropyrimidine-5-carboxamide]
LDH Inhibition (relative inhibitory activity) (LDHA enzyme): ** | Growth Inhibition (relative inhibitory activity) (Med1-MB cells): **

Compound: NC(=O)C(=O)O [oxamate, reference compound]
concentration lowering in vitro proliferation (Med1-MB cells; 72 h): > 20 mM

Compound: NC(=O)c1ccc(NC(=O)c2c[nH]c(=O)n(Cc3ccccc3)c2=O)cc1 [#6, 2,4-Dioxo-3-benzyl-N-(4-carboxamidophenyl)-1,2,3,4-tetrahydropyrimidine-5-carboxamide]
LDH Inhibition (relative inhibitory activity) (LDHA enzyme): *** | Growth Inhibition (relative inhibitory activity) (Med1-MB cells): ***

Compound: COc1ccc(Cn2c(=O)[nH]cc(C(=O)Nc3ccccc3Cl)c2=O)cc1 [#7, 2,4-Dioxo-3-(4-methoxybenzyl)-N-(2-chlorophenyl)-1,2,3,4-tetrahydropyrimidine-5-carboxamide]
LDH Inhibition (relative inhibitory activity) (LDHA enzyme): *** | Growth Inhibition (relative inhibitory activity) (Med1-MB cells): ***

— patent US20240376057A1, “2,4-DIOXO-1,2,3,4-TETRAHYDROPYRIMIDINE DERIVATIVES AND THEIR USE IN THE TREATMENT OF TUMORS” (ISTITUTO PASTEUR ITALIA, priority 2021, published 2024)
